Data as given in article PMC5996281, “Salinity Tolerance of Two Potato Cultivars (Solanum tuberosum) Correlates With Differences in Vacuolar Transport Activity” (Frontiers in Plant Science, 2018).

Columns and labels:
[1] = tested on: T1, V-H^+-ATPase (cv. Desiree); assay: ACMA fluorescence quench, initial rate of H+ pumping in tonoplast vesicles; type: biochemical, Solanum tuberosum; conditions: 10 mM Mops-TRIS pH 7.0, 5 mM MgCl2, 100 mM KCl; vesicles from control plants (0 mM NaCl)
T1 construct: gene VHA-A; subunit A 69 kDa on blot; with V-type proton ATPase 16 kDa proteolipid subunit; V-type proton ATPase subunit a

[2] = tested on: T2, V-H^+-ATPase (cv. Mozart); assay: as above; type: biochemical, Solanum tuberosum; conditions: 10 mM Mops-TRIS pH 7.0, 5 mM MgCl2, 100 mM KCl; vesicles from control plants (0 mM NaCl)
T2 construct: gene VHA-A; subunit A 69 kDa on blot; with V-type proton ATPase 16 kDa proteolipid subunit; V-type proton ATPase subunit a

V-H^+-ATPase = molecular target: T3, V-H^+-ATPase; assay: ACMA fluorescence quench, ATP-driven H+ pumping in tonoplast vesicles; type: biochemical, Solanum tuberosum; conditions: 1 mM Mg ATP, 10 mM Mops-TRIS pH 7.0, 5 mM MgCl2, 100 mM KCl; inhibition; cultivar not told
T3 construct: gene VHA-c; native V1Vo complex in tonoplast-enriched leaf vesicles; with V-type proton ATPase catalytic subunit A; V-type proton ATPase subunit B

[3] = tested on: T4, V-H^+-PPase (cv. Desiree); conditions: 10 mM Mops-TRIS pH 7.0, 5 mM MgCl2, 100 mM KCl; vesicles from control plants (0 mM NaCl)
T4 construct: gene StVP1

V-H^+-PPase (cv. Mozart) = tested on: T5, V-H^+-PPase (cv. Mozart); conditions: 10 mM Mops-TRIS pH 7.0, 5 mM MgCl2, 100 mM KCl; vesicles from control plants (0 mM NaCl)
T5 construct: gene StVP1

## Nc1ncnc2c1ncn2[C@@H]1O[C@H](COP(=O)(O)OP(=O)(O)OP(=O)(O)O)[C@@H](O)[C@H]1O [ATP]
[1]
  Km: 81 µM
[2]
  Km: 28 µM

## CO/C1=C\C(C)=C\[C@@H](C)[C@@H](O)[C@@H](C)C/C(C)=C/C=C/[C@H](OC)[C@@H]([C@@H](C)[C@@H](O)[C@H](C)[C@@]2(O)C[C@@H](O)[C@H](C)[C@@H](C(C)C)O2)OC1=O [bafilomycin]
V-H^+-ATPase
  EC50: 0.2 nM

## O=P(O)(O)OP(=O)(O)O [PPi]
[3]
  Km: 7.3 ± 1.1 µM
V-H^+-PPase (cv. Mozart)
  Km: 9.6 ± 0.8 µM
